From US20240391903A1, “AUTOTAXIN-INHIBITORS” (UNIVERSITAET MUENSTER, priority 2021, published 2024)
Entries after “also recorded” stand apart in the source; their conditions may differ.

Columns and labels:
[1] = Pharmacokinetic evaluation in mouse plasma after oral gavage; assay type: in vivo; conditions: 30 mg/kg oral, based on mean concentrations
Description: MJK2134025 and GLPG 1690 were each administered as wet milled aqueous micro-suspensions at a concentration of 3 mg/g in 1% carboxymethyl cellulose and 0.5% Tween 80. Dosing of the formulations was performed at 10.0 g/kg body weight, corresponding to 30 mg/kg body weight. The food intake was measured (FIG. 19).
Prior blood collection, minicollect K3 EDTA vials were opened at room temperature to dry the EDTA in order to avoid blood dilution by the fluid content. Following oral gavage of the test formulations tail vein blood samples were taken at 15 min, 30 min, 1 h, 2 h, 4 h and 8 h. Samples were collected in dried minicollect K3 EDTA plasma vials. The blood samples (20-25 μl) were mixed and immediately cooled to 4° C. Subsequently, the samples were centrifuged at 3000 g for 5-10 min. Supernatants were collected in Eppendorf tubes and frozen and stored at −80° C. until further processing.
MJK2134025 and GLPG1690 were quantified in mouse plasma samples by LC-MS. Frozen mouse plasma samples were thawed on ice. Samples were then precipitated at a ratio of 1:10 (v:v) with 5 ng mL^−1 17:0 LPA in methanol (as an internal standard) in a 1.5 mL Eppendorf tube with microinsert (clear glass, flat bottom, 0.2 mL, 31×6 mm, LABSOLUTE, Germany). The Eppendorf tubes were mixed for 2 minutes at 4° C. and 1600 rpm in a Thermomixer C (Eppendorf, Germany). The Eppendorf tubes were centrifuged at 4° C. and 16.1 rcf for 2 minutes. The supernatant was transferred to HPLC vials for UHPLC-HRMS measurements as described in the following section. Calibration standards of MJK2134025 and GLPG1690 were prepared by adding the reference substances of MJK2134025 and GLPG1690 to blank samples (mouse plasma without substance). The calibration curve was generated at 7 concentrations and with a weighting of 1/×. The following concentrations were used for the stock solutions: 0.1, 0.5, 1, 2.5, 10, 50 and 200 μg·mL^−1 in methanol. To prepare the 200 μg·mL^−1 stock solution, 0.04 mL of 1 mg·mL^−1 MJK2134025 and 0.04 mL of 1 mg·mL^−1 GLPG1690 were mixed with 0.12 mL methanol. These stock solutions (5 μL each) were added to the blank plasma (45 μL). The sample was then mixed for 2 minutes at 4° C. and 1600 rpm in Thermomixer C (Eppendorf, Germany). Subsequent sample processing was the same as for the samples quantified. All quantifications should be considered as preliminary estimates as stable isotope-labeled reference substances were not available and individual matrix effects cannot be excluded.
All processed plasma samples were analyzed with a Vanquish Horizon UHPLC system (Thermo Fisher Scientific, Bremen, Germany) coupled to a Thermo Scientific QExactive HF-X Orbitrap mass spectrometer (Thermo Fisher Scientific, Bremen, Germany) using a UHPLC column (Luna R Omega 1.6 μm C18 100 Å, 100*2.1 mm). A solution of 5 mM ammonium formate in water containing 0.1% formic acid (eluent A) and a 5 mM solution of ammonium formate in acetonitrile: H2O (95:5, % v:v) containing 0.1% formic acid (eluent B) were used as the mobile phase. A flow rate of 0.3 mL/min was used under the following gradient conditions: 30% eluent B for 1 minute, then linear increase to 98% in 14 minutes, holding 98% of eluent B for 5 minutes, and then decreasing to 30% in 0.5 minutes, followed by isocratic holding for 3.5 minutes. The column temperature was maintained at 25° C. Samples were kept at 4° C., and 8 μL was injected into the UHPLC-MS. The QExactive HF-X Orbitrap was acquired at a resolution of 60000 at full half-width and in both positive and negative modes. The following HESI source parameters were used: capillary voltage of 3.8 kV (negative mode) and 3.5 kV (positive mode), capillary temperature of 320° C., funnel RF level 40, sheath gas pressure 49 (N2>95%), auxiliary gas 10 (N2>95%), auxiliary gas heater temperature 300° C. The automatic gain control (AGC) was set to 10E+6. A scan range of m/z 400 to 600 was selected, and the injection time was set to 200 ms. […]

ATX = biological target: T1, ATX (Homo sapiens, UniProt Q13822); test: ATX activity assay (Autotaxin inhibitor test kit, fluorescent ATX substrate); assay type: biochemical; conditions: for IC50: read-out: IC50 (nM) ATX inhibition
T1 construct: purchased
Description: (§1) A solution of 10 mM of the inhibitor to test in DMSO was received. Adding 40.5 μL of this solution to 959.5 μL DMSO gave a concentration of 405 μM. […] For a threefold dilution series 800 μL of 18% DMSO in water were dispensed in twelve 1.5 mL test tubes. 400 μL of the 75.9 μM inhibitor solution were added to the first vial and the solution was vortexed. For every dilution step 400 μL of the corresponding previous dilution step were transferred and mixed by vortexing. The obtained concentrations were 7594 nM, 2531 nM, 844 nM, 281 nM, 94 nM, 31 nM, 10 nM, 3.47 nM, 1.16 nM, 0.39 nM, 0.13 nM, 0.043 nM, 0.014 nM. The eight concentration steps from 31 nM to 0.014 nM were used in the assay.
The assay was performed according to the attached manual of the assay kit. In brief 80 μL reaction buffer containing ATX, 10 μL of the dilution series from the inhibitor and 10 μL fluorescent ATX substrate solution were mixed in a well of a 96 well plate. Cleavage of the substrate by ATX causes increase in fluorescence (excitation 485 nm, emission 528 nm), which is measured by a plate reader in 1 min intervals. The increase of fluorescence between 5 min and 15 min was used to calculate the reaction rate.
The autotaxin reaction was performed in four parallel replicates for the target inhibitor and two replicates for the positive control BrP-LPA. The slope of the increase in fluorescence was calculated by Excel using the “slope” function. The IC50 was calculated by GraphPad Prism using the nolinear regression (curve fit): “log (inhibitor) vs. response with variable slope (four parameters)”.
The autotaxin reaction was performed in three parallel replicates for the target inhibitors MJK2234001 and MJK2234002 and two replicates for MJK2134025 and two replicates for the positive control BrP-LPA. All ATX-tests were performed using the protocol as described above with minor modifications. Those modifications refer to the dilution principle:
as §1, with “The obtained concentrations were 7594 nM, 2531 nM, 844 nM, 281 nM, 94 nM, 31 nM, 10 nM, 3.47 nM, 1.16 nM, 0.39 nM, 0.13 nM, 0.043 nM, 0.014 nM.” left out, “300” for “31”, “0.14” for “0.014”, “assay. During the assay, the final concentration of the inhibitor during the reaction was 1/10th of the added inhibitor solution.” for “assay.”

[2] = Cytotoxicity testing in HeLa cells (methylene blue); assay type: cell-based; conditions: human, HeLa cells (DSM ACC 57), 72 hours incubation
Description: Hela cells (DSM ACC 57) were grown in RPMI 1640 medium supplemented with 10 mL·L^−1 ultraglutamine 1 (CAMBREX 17-605E/U1), 550 μL·L^−1 gentamicin sulfate (50 mg·mL^−1, CAMBREX 17-518Z) and 10% heat inactivated fetal bovine serum (GIBCO Life Technologies 10270-106) at 37° C. in a 5% CO2 atmosphere in high density polyethylene flasks (NUNC 156340). Cells were pre-incubated for 48 hours in the absence of test substances. Subsequently, Hela cells were incubated with serial dilutions of the test substances in 96 well microplates for 72 hours at 37° C. in a humidified atmosphere and 5% CO2. After incubation, the cytolytic effect of compounds was analyzed relative to the negative control (DMSO) using a colorimetric assay (methylene blue). The adherent Hela cells were fixed by glutaraldehyde (MERCK 1.04239.0250) and stained with a 0.05% solution of methylene blue (SERVA 29198) for 15 min. After gentle rinsing, the stain was eluted through addition of 0.2 mL hydrochloric acid (0.33 M) to each well. The absorptions were measured at 660 nm in a SUNRISE microplate reader (TECAN). Four replicates were assayed for each substance. […] All calculations of CC50 values were performed with the software Magellan (TECAN).

[3] = Microsomal stability assay; assay type: in vitro ADME; conditions: human liver microsomes
Description: A microsomal stability assay was performed according to an internal standard procedure. Positive control compound diclofenac and three test items were freshly prepared as sub-dilutions in phosphate buffer (100 mM, pH 7.4) at concentrations of 200 μM and 20 μM, respectively. All incubations were conducted in triplicate in glass screw neck vials (1.5 mL, flat bottom, Macherey-Nagel, Düren, Germany) on a Thermomixer C (Eppendorf, Germany) at 37° C. and 1500 rpm. The incubation mixtures contained 270 μL human liver microsomes (HLM, 1.1 mg·mL^−1, UltraPool HLM 150, Corning B.V. Life Science, Amsterdam, the Netherlands), 270 μL NADP regeneration mix (1 mM NADP, 5 mM glucose-6-phosphate, 5 units·mL^−1 glucose-6-phosphate dehydrogenase and 5 mM MgCl2) and 30 μL phosphate buffer to reach a total volume of 570 μL. Negative controls were performed with heat inactivated (80° C., 30 min) HLM solution. Reactions were initiated by addition of diclofenac or the test item solution (30 μL). Aliquots of 100 μL were taken at 1, 15, 30, 60, and 90 minutes and immediately processed with 100 μL acetonitrile at 4° C. to terminate the reactions, and shaken for 2 minutes at 4° C. with 1600 rpm. The mixed samples were further transferred to 15 mm glass inserts (0.2 mL/6×31 mm, Macherey-Nagel, Düren, Germany) fitted in glass screw neck vials, and centrifuged for 15 min at 4° C. with 4000 rpm. The supernatants were withdrawn and subjected to high resolution mass spectrometry analysis without further treatment.
Samples were analyzed using a Vanquish Horizon UHPLC system (Thermo Fisher Scientific, Bremen, Germany) coupled to a Thermo Scientific QExactive HF-X Orbitrap mass spectrometer (Thermo Fisher Scientific, Bremen, Germany) using a UPLC column (ACQUITY HSS T3, Waters, 1.8 μm particle size, 2.1×50 mm dimensions). The column temperature was maintained at 25° C., and the samples were kept at 4° C. […]
Microsomal stability was determined in analogy to the method as described above, but as single determinations (FIG. 18).

[4] = mouse model of stroke; cited from earlier work

## CCc1nc2c(C)cc(N3CCN(CC(=O)N4CC(O)C4)CC3)cn2c1N(C)c1nc(-c2ccc(F)cc2)c(C#N)s1 [GLPG1690, reference compound]
[1]
  AUC: 119 µg·h/mL
  Cmax: 35200 ng/mL
  Tmax: 1 h

## O=C(OCc1cc(C(F)(F)F)cc(C(F)(F)F)c1)N1CCN(CCS(=O)(=O)c2ccc3nn[nH]c3c2)CC1 [MJK2134025, 3,5-bis(trifluoromethyl)benzyl 4-(2-((1H-benzo[d][1,2,3]triazol-6-yl)sulfonyl)ethyl)piperazine-1-carboxylate]
ATX
  ATX-inhibitory activity (comparison in words): almost equal ATX-inhibitory activity; also recorded: comparable ATX-inhibtion as PF8380
  IC50: 1.8 nM
[2]
  CC50 at 72 h: 45100 nM
[3]
  microsomal stability / metabolism (in words): almost equally metabolically stable and superior to all other compounds tested; also recorded: favorable decay time course
[1]
  AUC: 303 µg·h/mL
  Cmax: 56400 ng/mL
  Tmax: 2 h

## O=C(CSc1ccc2nn[nH]c2c1)N1CCN(C(=O)OCc2cc(C(F)(F)F)cc(C(F)(F)F)c2)CC1 [MJK2234001, 3,5-bis(trifluoromethyl)benzyl 4-(2-((1H-benzo[d][1,2,3]triazol-6-yl)thio)acetyl)piperazine-1-carboxylate]
ATX
  IC50: 4 nM
[2]
  CC50 at 72 h: 6200 nM
[3]
  microsomal stability / metabolism (in words): metabolized at a comparable speed as the experimental drug GLPG 1690

## O=C(CS(=O)(=O)c1ccc2nn[nH]c2c1)N1CCN(C(=O)OCc2cc(C(F)(F)F)cc(C(F)(F)F)c2)CC1 [MJK2234002, 3,5-bis(trifluoromethyl)benzyl 4-(2-((1H-benzo[d][1,2,3]triazol-6-yl)sulfonyl)acetyl)piperazine-1-carboxylate]
ATX
  ATX-inhibitory activity (comparison in words): almost equal ATX-inhibitory activity
  IC50: 2 nM
[2]
  CC50 at 72 h: 67800 nM
[3]
  microsomal stability / metabolism (in words): almost equally metabolically stable and superior to all other compounds tested

## O=C(CCN1CCN(C(=O)OCc2cc(Cl)cc(Cl)c2)CC1)c1ccc2[nH]c(=O)oc2c1 [PF-8380]
[4]
  infarct size and stroke-related motor deficits: significantly reduced
